Here are results for 11 substances from patent publication US6083929A, “Extended type 1 chain glycosphingolipids as tumor-associated antigens” (The Biomembrane Institute, priority 1992, dated 2000).

Entries after “also recorded” stand apart in the source; their conditions may differ. Where two headings read alike, the source gives them in different places.

One assay has as its system MAb IMH2. The experiment in a line: TLC immunostaining / solid-phase ELISA reactivity of MAb IMH2 with GSL antigens. The arrangement: species or system mouse. The note with it: TLC immunostaining / antibody binding on solid-phase antigen, IMH2 5 μg/ml. The procedure:
FIG. 8 graphically illustrates the reactivity of MAb IMH2 with various glycosphingolipids (GSLs). Serial double dilutions of various GSL antigens were added to 96-well flat-bottom assay plates (Probind plate, Falcon) in ethanol and dried. Initial concentration of GSL added to the first well was 100 ng/well. MAb binding assay was performed by ELISA as described below. Abscissa, reciprocal of antigen dilution. Ordinate, optical density reading at 490 nm. Paragloboside is abbreviated as "PG". Panel A: reactivity of type 1 chain GSLS. .circle-solid., Le^b /Le^a. .smallcircle., Le^b hexasaccharide (IV^2 FucIII^4 FucLc4). Δ, Le^a /Le^a. .quadrature. […] Panel B: reactivity of type 2 chain GSLs. .circle-solid., Le^y /Le^x (VI^2 FucV^3 FucIII^3 FucnLc6). .smallcircle., Le^y hexasaccharide ceramide (IV^2 FucIII^3 FucnLc4). Δ, Le^x /Le^x (V^3 FucIII^3 FucnLc6). .quadrature. (all of the following had similar reactivity), H1 type 2 chain (IV^2 nLc4); H2 type 2 chain (IV^2 FucnLc6); PG (nLc4); Le^x (III^3 FucnLc4). When GSL antigens were mixed with cholesterol and phosphatidylcholine in a molar ratio of 1:5:3 in ethanol and analyzed as above, the relative degrees of reactivity were essentially the same as shown in the figure.
The binding specificity of MAb IMH2 was tested by thin-layer chromatography immunostaining of various GSL antigens by the method previously described by Magnani et al. (Anal. Biochem. 109:399-402, 1980), and modified by Kannagi et al. (Cancer Res. 43:4997-5005, 1983). IMH2 reactivity was also determined by antibody binding on solid-phase antigen as follows. Each GSL antigen, dissolved in ethanol (100 ng/50 μl), was placed in a well, serially diluted with ethanol to 0.1 ng/50 μl per well in a flat-bottom 48-well plate (Falcon, Becton-Dickinson, Lincoln Park, N.J.), and dried. The dried antigen in each well was then incubated with 1% bovine serum albumin in PBS for 1 hr at room temperature, followed by reaction with IMH2 (5 μg/ml) for 18 hr at 4° C. Each well was washed with PBS, followed by incubation with biotinylated second antibody and avidin-peroxidase conjugate as prepared in the ELISA assay kit. The orange color developed in each well was read by automated "ELISA reader" (EL312 Biokinetics Reader, Biotek Instruments, Winooski, Vt.), and optical density at […] for each well was recorded.
(ELISA stands for enzyme-linked immunosorbent assay.)

The subject of the next assay is MAb MNH-1. The experiment in a line: TLC immunostaining with MAb MNH-1. In kind it is binding. The note with it: TLC immunostaining after enzymatic degradation of dimeric Le^a. The procedure:
(§1) MAb ST-421 was established as previously described (Watanabe et al., Jpn. J. Cancer Res. (Gann) 76:43-52, 1985). MAb MNH-1, which defines type 1 chain N-acetyllactosamine (Galβ1→3GlcNAcβ1→R), was prepared in laboratory of the inventors; MAb 1B2, which defines type 2 chain N-acetyllactosamine (Galβ1→4GlcNAcβ1→R), was established as previously described (Young et al., J. Biol. Chem. 256:10967-10972, 1981). Anti-Le^a MAb was obtained from Chembiomed Ltd. (Edmonton, Alberta, Canada). […] HPTLC immunostaining was performed using Whatman HPTLC plates (HP-KF) by a modified version (Kannagi et al., J. Biol. Chem. 257:4438-4442, 1982; Kannagi et al., J. Biol. Chem. 257:14865-14874, 1982) of the method originally described by Magnani et al. (Magnani et al., Anal. Biochem. 109:399-402, 1980).
(§2) Enzymatic degradation of 1 mg dimeric Le^a was performed by sequential hydrolysis with 0.5 units of α-fucosidase (bovine kidney), 0.5 units of β-galactosidase (Cackbean), and 0.5 units of β-N-acetylglucosaminidase (bovine epididymis) (Sigma Chemical Co., St. Louis, Mo.). All reactions were carried out in 0.2 M sodium citrate (pH 4.5) for 4 hr at 37° C. in a water bath with shaking. Purification of each degradative product was performed by preparative HPTLC.
(§3) TLC immunostaining of the purified antigen component with various MAbs was performed before and after successive enzymatic degradation. […] Bands a and b are therefore assumed to be Lc6 (Table III, structure 6) and III^4 FucLc6 (structure 13), respectively, based on their reactivity with MAbs and on further enzymatic degradation patterns.

Another assay has as its system MAb 1B2. The experiment in a line: TLC immunostaining with MAb 1B2. The settings on record: TLC immunostaining after enzymatic degradation of dimeric Le^a. It is filed as binding. The procedure:
as §1, §2, §3

For assay [1], the system named is MAb ST-421. The experiment in a line: TLC immunostaining of GSL with MAb ST-421. It is filed as binding. The procedure: as §1
Extended sialyl-Le^a on the SLe^a -Le^a structure was verified by enzymatic degradation with sialidase to yield the same compournd as Le^a -Le^a as verified by thin layer chromatography as well as immunostaining with monoclonal antibody ST-421.

The subject of assay [2] is MAb ST-421. The experiment in a line: Solid-phase radioimmunoassay of glycolipids with MAb NCC-ST-421. In kind it is binding. The settings on record: ST421 10 μg/ml, initial glycolipid 100 ng. As to the method: FIG. 7 graphically illustrates the reactivity of dimeric Le^a, Le^a -Le^x and related glycolipids with MAb NCC-ST-421. Solid-phase radioimmunoassay with MAb ST-421 using serially-diluted dimeric Le^a, Le^a /Le^x, and various structurally-related glycoilpid antigens. Initial concentration of glycolipids was 100 ng. ST421 was used at a concentration of 10 μg/ml. A, IV^3 Galβ1→3[Fuc1→4]GlcNAcIII^3 FucnLc4 (Le^a /Le^x; structure 10 in Table III); B, V^4 III^4 Fuc2 Lc6 (dimeric Le^a; structure 11); C, IV^3 Galβ1→3[Fucα1→4]GlcNAcnLc4 (structure 8); D, III^4 FucLc4 (structure 1); E, IV^3 (Galβ1→3GlcNAcIII^3 FucnLc4 (structure 9); F, V^3 III^3 Fuc2 nLc6 (structure 7); G, IV^2 FucLc4 (structure 2); H, IV^3 Galβ1→3GlcNAcnLc4 (structure 4); I, IV^2 III^4 Fuc2 Lc4 (structure 3); J, nLc6 (structure 5); K, VI^2 FucnLc6 (type 2 H with nLc6 core; not shown in Table III); L, VI^2 V^3 Fuc2 nLc6 (Le^y with nLc6 core; not shown in Table III).
The solid-phase radioimmunoassay as described by Kannagi et al. (Cancer Res. 43:4997-5005, 1983) was used. […] Dimeric Le^x and various other structurally related GSLs were not reactive with ST421 (FIG. 7).

The test system of the next assay is anti-Le^a MAb. The experiment in a line: Reactivity of GSL with anti-Le^a MAb. In kind it is binding. The procedure: as §1, §3
The test system of a further assay is anti-Le^b MAbs. The experiment in a line: Reactivity of GSL with anti-Le^b MAbs. It is filed as binding. The procedure: as §1
The subject of another assay is anti-Le^y MAb AH6. The experiment in a line: Reactivity of GSL with anti-Le^y MAb AH6. It is filed as binding. The procedure:
as §1

In the case of III^3 V^3 Fuc2 nLc6 [Dimeric Le^x], the “reactivity of MAb IMH2 with GSL (in words)” value (from here on “reactivity of MAb IMH2”) with MAb IMH2 is on record as “reacted weakly”.

Consider III^4 FucLc6, for which the “reactivity with MAb MNH-1” value with MAb MNH-1 was “reacted with MAb MNH-1”. Moreover, the “reactivity with MAb 1B2” value in the assay on MAb 1B2 is “not with anti-Le^a or 1B2”.

Regarding III^4 V^4 Fuc2 Lc6 [dimeric Le^a], the “reactivity with MAb ST-421” value with MAb ST-421 [1] was “stained strongly”.

Consider IV^2 FucLc4 [H type 1 chain], for which the “reactivity of MAb IMH2” value in the assay with MAb IMH2 is reported as “did not react”.

Turning to IV^2 FucnLc4 [H1], in the assay with MAb IMH2, the “reactivity of MAb IMH2” value was “did not react”.

As to “IV^3 Galβ1→3[Fuc1→4]GlcNAcIII^3 FucnLc4 [Le^a /Le^x]”, the “reactivity of MAb IMH2” value in the assay with MAb IMH2 is “did not react”; in the assay with MAb IMH2 (listed as Le^a /Le^a) it was “reacted weakly”. In addition, in the assay on MAb ST-421 [2], the “reactivity with ST-421” value is recorded as “strongest reactivity; also recorded: clear preference for them compared to extended Le^a or simple Le^a”. The “reactivity with anti-Le^a MAb” value in the assay on anti-Le^a MAb is “reacted with anti-Le^a MAb”. Further, the results for the “reactivity with MAb ST-421” value with MAb ST-421 [1] and in the assay on MAb ST-421 [1] (listed as Le^a /Le^a) were “reacted with anti-Le^a MAb as well as with MAb ST-421” and “react strongly; also recorded: reacted with anti-Le^a MAb as well as with MAb ST-421”, respectively.

Lc4: the “reactivity of MAb IMH2” value with MAb IMH2 was “did not react”. Besides, the “reactivity with MAb MNH-1” value with MAb MNH-1 is “reacted strongly”. For the same substance, the “reactivity with MAb 1B2” value with MAb 1B2 is listed as “did not react”.

Regarding Lc6, the “reactivity with MAb MNH-1” value with MAb MNH-1 is “reacted with MAb MNH-1”. The “reactivity with MAb 1B2” value with MAb 1B2 is listed as “not with anti-Le^a or 1B2”.

For the substance “VI^2 FucV^3 FucIII^3 FucnLc6 [Le^y /Le^x]”, the “reactivity of MAb IMH2” value in the assay on MAb IMH2 is “reacts strongly; also recorded: reacted equally well; also recorded: reacts”. The “reactivity with anti-Le^b MAbs” value in the assay on anti-Le^b MAbs is recorded as “not with anti-Le^b”. The “reactivity with anti-Le^y MAb AH6” value in the assay with anti-Le^y MAb AH6 is reported as “reacted with AH6”.

With VI^2 FucnLc6 [H2], the “reactivity of MAb IMH2” value in the assay on MAb IMH2 was “did not react”.

As for nLc4, the “reactivity of MAb IMH2” value with MAb IMH2 is reported as “did not react”.
